# Measurements taken from patent US20260274887A1, “SALT FORM AND POLYCRYSTALLINE FORM OF ALLOPREGNANOLONE DERIVATIVE, PREPARATION METHOD THEREFOR, AND USE THEREOF” (priority 2023, published 2026).
# Where two headings read alike, the source gives them in different places.
# Columns and labels:
# [1] = Solubility of different salt forms in water (HPLC of supernatant); conditions: for solubility at 24 h: water, thermodynamic from solid; for Solubility at 37° C. / Solubility at 25° C.: purified water, 24 h
# Experimental: The system was stirred in a water bath at 25° C. In addition, the same system was prepared by the same method and stirred at 37° C. After 24 h, the supernatant was taken for HPLC analysis.
# [2] = Interconversion between crystalline forms (slurry of two forms, DSC); format: physicochemical; conditions: room temperature, 3 days
# Experimental: Samples of two different crystalline forms were mixed and dissolved in a corresponding solvent of 5 mL, and the mixture was stirred at room temperature for 3 days and separated by centrifugation. The resulting solid was dried in vacuum at 40 ° C. The dried product was subjected to a DSC test to determine the composition of the crystalline form.
# [3] = DVS profile (moisture sorption) of crystalline forms; format: physicochemical
# [4] = Stability of crystalline form I and II (HPLC purity; XRPD and DSC crystalline form); format: physicochemical
# [5] = as above; format: physicochemical; remark: listed apart in the source
# Text: Samples were taken on day 0, day 10, and day 30 for XRPD and DSC detections to evaluate the physical stability and for HPLC purity detection to evaluate the chemical stability.
# [6] = Hygroscopic weight gain experiment (Chinese Pharmacopoeia 2020 hygroscopicity guideline); format: physicochemical; conditions: for Hygroscopic weight gain: 25° C.±1° C. and 80%±2% RH
# Experimental: Table 1 below is the definition and range of hygroscopicity for a drug after equilibration at 25° C.±1° C. and 80%±2% RH in Guidelines for Hygroscopicity Trials for Pharmaceuticals (Chinese Pharmacopoeia, 2020 Edition, Volume IV, page 485).
# The strong hygroscopicity of a drug will seriously affect the flowability of the drug and even affect the stability of the drug. Therefore, according to the present application, a hygroscopic weight gain experiment was conducted on different salt forms of compound 1 as per the method described in Guidelines for Hygroscopicity Trials for Pharmaceuticals (Chinese Pharmacopoeia, 2020 Edition, Volume IV).
# [7] = format: physicochemical
# [8] = in the human body; cited from earlier work
compound,measurement,setting,value
"[2H]C(C)(C)[C@H](N)C(=O)O[C@@H]1CC[C@@]2(C)[C@@H](CC[C@@H]3[C@@H]2CC[C@]2(C)[C@@H](C(C)=O)CC[C@@H]32)C1 [Compound 1, L-valine-3-d, (3α,5α)-3-hydroxy-pregnan-20-one-3-yl ester]",solubility at 24 h,[1]; 25 °C,10 µg/mL
same,Solubility at 37° C.,[1],Not detected
Cl.[2H]C(C)(C)[C@H](N)C(=O)O[C@@H]1CC[C@@]2(C)[C@@H](CC[C@@H]3[C@@H]2CC[C@]2(C)[C@@H](C(C)=O)CC[C@@H]32)C1 [Crystalline form III],Final crystalline form,[2]; isopropyl acetate 5 ml,crystalline form I
Cl.[2H]C(C)(C)[C@H](N)C(=O)O[C@@H]1CC[C@@]2(C)[C@@H](CC[C@@H]3[C@@H]2CC[C@]2(C)[C@@H](C(C)=O)CC[C@@H]32)C1 [Crystalline form I],DVS weight gain,[3]; relative humidity 90%,1.2%
same,"Purity, High humidity (RH 92.5%)",[4]; day 5,99.72%
same,"Purity, High temperature (60° C.)",[4]; day 5,99.78%
same,"Purity, Illumination (4500 ± 500 Lux)",[4]; day 5,99.78%
same,"Purity, Illumination (4500 ± 500 Lux)",[4]; day 10,99.82%
same,"Purity, High humidity (RH 92.5%)",[4]; day 30,99.78%
same,"Purity, High temperature (60° C.)",[4]; day 30,99.64%
same,"Purity, High humidity (RH 92.5%)",[5]; day 0,99.77%
same,"Purity, High temperature (60° C.)",[5]; day 0,99.77%
same,"Purity, Illumination (4500 ± 500 Lux)",[5]; day 0,99.77%
same,"Purity, High humidity (RH 92.5%)",[5]; day 10,99.82%
same,"Purity, High temperature (60° C.)",[5]; day 10,99.77%
same,"Purity, Illumination (4500 ± 500 Lux)",[5]; day 30,99.65%
same,Hygroscopicity (summary statement),[6]; summary of the polymorph comparison,non-hygroscopic
O=C(O)CC(O)C(=O)O.[2H]C(C)(C)C(N)C(=O)OC1CCC2(C)C(CCC3C2CCC2(C)C(C(C)=O)CCC32)C1.[2H]C(C)(C)C(N)C(=O)OC1CCC2(C)C(CCC3C2CCC2(C)C(C(C)=O)CCC32)C1 [L-Malate],Solubility at 25° C.,[1],1400 µg/mL
same,Solubility at 37° C.,[1],2110 µg/mL
same,Hygroscopic weight gain,[6],4.0%
Maleate,Solubility at 25° C.,[1],730 µg/mL
same,Solubility at 37° C.,[1],1120 µg/mL
same,Hygroscopic weight gain,[6],0%
Cl.[2H]C(C)(C)[C@H](N)C(=O)O[C@@H]1CC[C@@]2(C)[C@@H](CC[C@@H]3[C@@H]2CC[C@]2(C)[C@@H](C(C)=O)CC[C@@H]32)C1 [Hydrochloride],solubility at 24 h,[1]; 25 °C,22700 µg/mL
same,solubility at 24 h,[1]; 37 °C,46400 µg/mL
same,Hygroscopic weight gain,[6],0.2%
same,"HPLC purity, High humidity/RH 92.5%",[7]; day 0,100%
same,"HPLC purity, High temperature/60° C.",[7]; day 0,100%
same,"HPLC purity, Illumination/4500 ± 500 Lux",[7]; day 0,100%
same,"HPLC purity, High humidity/RH 92.5%",[7]; day 7,99.89%
same,"HPLC purity, High temperature/60° C.",[7]; day 7,99.89%
same,"HPLC purity, Illumination/4500 ± 500 Lux",[7]; day 7,99.89%
same,"HPLC purity, High humidity/RH 92.5%",[7]; day 14,99.89%
same,"HPLC purity, High temperature/60° C.",[7]; day 14,99.88%
same,"HPLC purity, Illumination/4500 ± 500 Lux",[7]; day 14,99.89%
"CC(=O)[C@H]1CC[C@H]2[C@@H]3CC[C@H]4C[C@H](O)CC[C@]4(C)[C@H]3CC[C@]12C [allopregnanolone, 3α-OH-5α-pregnan-20-one]",plasma half-life,[8],about 45 minutes
CC(=O)O [Acetate],Hygroscopic weight gain,[6],0.4%
O=P(O)(O)O.[2H]C(C)(C)C(N)C(=O)OC1CCC2(C)C(CCC3C2CCC2(C)C(C(C)=O)CCC32)C1.[2H]C(C)(C)C(N)C(=O)OC1CCC2(C)C(CCC3C2CCC2(C)C(C(C)=O)CCC32)C1 (stereo not drawn) [Phosphate],Hygroscopic weight gain,[6],4.9%
Cl.[2H]C(C)(C)[C@H](N)C(=O)O[C@@H]1CC[C@@]2(C)[C@@H](CC[C@@H]3[C@@H]2CC[C@]2(C)[C@@H](C(C)=O)CC[C@@H]32)C1 [Crystalline form II],DVS weight gain,[3]; relative humidity 50%,about 4%
same,Final crystalline form,[2]; isopropyl acetate 5 ml,crystalline form I
same,"Purity, High humidity (RH 92.5%)",[4]; day 5,99.39%
same,"Purity, High temperature (60° C.)",[4]; day 5,99.28%
same,"Purity, Illumination (4500 ± 500 Lux)",[4]; day 5,99.57%
same,"Purity, Illumination (4500 ± 500 Lux)",[4]; day 10,99.68%
same,"Purity, High humidity (RH 92.5%)",[4]; day 30,99.37%
same,"Purity, High temperature (60° C.)",[4]; day 30,97.03%
same,"Purity, High humidity (RH 92.5%)",[5]; day 0,99.59%
same,"Purity, High temperature (60° C.)",[5]; day 0,99.59%
same,"Purity, Illumination (4500 ± 500 Lux)",[5]; day 0,99.59%
same,"Purity, High humidity (RH 92.5%)",[5]; day 10,99.65%
same,"Purity, High temperature (60° C.)",[5]; day 10,98.93%
same,"Purity, Illumination (4500 ± 500 Lux)",[5]; day 30,99.20%
C1=Cc2cccc(OC[C@H]3CNCCO3)c2C1.O=S(=O)(O)c1ccccc1 [Benzenesulfonate],Hygroscopic weight gain,[6],0.2%
Cl.[2H]C(C)(C)[C@H](N)C(=O)O[C@@H]1CC[C@@]2(C)[C@@H](CC[C@@H]3[C@@H]2CC[C@]2(C)[C@@H](C(C)=O)CC[C@@H]32)C1 [Crystalline form IV],Final crystalline form,[2]; n-heptane 5 ml,crystalline form IIL
Cc1ccc(S(=O)(=O)O)cc1.[2H]C(C)(C)C(N)C(=O)OC1CCC2(C)C(CCC3C2CCC2(C)C(C(C)=O)CCC32)C1 (stereo not drawn),Solubility at 25° C.,[1],810 µg/mL
same,Solubility at 37° C.,[1],890 µg/mL
same,Hygroscopic weight gain,[6],0%
